Results published in publication PMC3790782, “Optimization and Pharmacological Validation of a Leukocyte Migration Assay in Zebrafish Larvae for the Rapid In Vivo Bioactivity Analysis of Anti-Inflammatory Secondary Metabolites” (PLoS ONE, 2013).
Marks after values point to notes of the source that are not given here.

Tests used:
[1] = tested on: leukocyte migration in 4 dpf zebrafish larvae; experiment: LPS-enhanced leukocyte migration assay (tail transection, MPO staining, RLM); type: in vivo, zebrafish (Danio rerio); design: Anti-inflammatory activity at MTC: concentration or dose not given beside the values
Experimental: The lipopolysaccharide- (LPS−)enhanced leukocyte migration assay was carried out by triplicate for each sample in 4 dpf zebrafish larvae. The total incubation period of the assay was eight hours. Initially, a pre-incubation step (i.e. prior to tail transection) of one hour at 28°C (±0.5°C) was carried out in 24-well culture plates. Ten larvae per well were incubated in 1 ml of testing mix, consisting of a specific concentration of each sample and the amount of 0.3 X Danieau’s medium necessary to complete 1 ml. Immediately after pre-incubation, complete tail transection in each larva was performed. Zebrafish larvae were first anesthetized by immersion in 0.3 X Danieau’s medium containing 70 µg/ml tricaine (ethyl 3-aminobenzoate, Sigma-Aldrich) and then tail transection near the tip was performed with a sterile scalpel under light microscopy (Carl Zeiss Stemi 2000C). Larvae were then placed in fresh 0.3 X Danieau’s medium without anesthetic for a few minutes until the final incubation period. For the last step, a new testing mix was prepared including 10 µg/ml lipopolysaccharides from Salmonella typhosa ATCC 10749 (LPS, Sigma-Aldrich Chemical) to enhance leukocyte migration to the injured zone. The final incubation step (i.e. subsequent to tail transection) of the injured larvae in contact with the pro-inflammatory agent and with the specific concentration of each SAID, NSAID, non-AID, NP, and PE at 28°C (±0.5°C) was done for 7 h. Within this period, sporadic evaluations of the larvae were done to examine their viability during the time of the assay. Larvae that completed the incubation time were fixed overnight in 4% formaldehyde (Sigma-Aldrich) at 4°C. Controls containing only the vehicle (1% DMSO) were processed in parallel.
Fixed larvae were gently washed twice with 1 X PBST (PBS-1X phosphate buffered saline, Gibco +0.1% Tween 20) for 5–10 min and then incubated at room temperature in 1 ml of freshly prepared Leucognost® Pox (Merck) staining solution, made according the directions of the provider. Observation of stained black-brown cells (leukocytes) in the larvae was possible within 15 min of incubation. Evaluation of the migrating leukocytes, particularly surrounding the injured region, in each larva was done under light microscopy (Carl Zeiss Stemi 2000C) and scoring was done using a migration scale established to semi-quantify the amount of migrating leukocytes on one side of each larva.
The average of the value achieved for each of the ten larvae tested in triplicate for one sample is expressed as relative leukocyte migration (RLM) according to the formula: RLM = leukocyte migration of the larva/average leukocyte migration of the negative control.
To determine the extent of leukocyte migration generated after exposing 4 dpf zebrafish larvae to mechanical and biological stimuli – namely tail transection and LPS exposure – we used a commercially available whole-mount cytochemical staining method (Leucognost® Pox, Merck) to detect MPO activity in situ. To minimize the number of handling steps post-staining, this method was chosen over the alternative myeloperoxidase stain Sudan Black B [26], [27], which also stains phospholipids, neural fats and sterols. In our experiments, we visualized migrating leukocytes in 4 dpf larvae at 8 h post-injury. Microscopic evaluations of MPO-stained larvae allowed us to score the degree of leukocyte migration at the trauma site according to a comparative scale that we established particularly for this purpose (Figure 2). Myeloperoxidase-positive cells, appearing as black-brown dots, were counted in a segment at the edge of the tail on one side of every larva (Figure 2). The number of leukocytes was then graded according to the comparative scale and subsequently converted into a relative value expressed as the relative leukocyte migration (RLM) activity for the total number or larvae for one sample.

[2] = tested on: NO, RAW 264.7; design: method as in PMID 15621702, PMID 19678956, PMID 19885845; details: cited from earlier work
[3] = tested on: zebrafish larvae; details: 4 dpf zebrafish larvae, 8 h post-incubation; not more than 2 of 10 larvae with signs of toxicity
Experimental: For the toxicological analysis, ten 4 dpf zebrafish larvae were used per well in 24-well culture plates. Incubation of each set of larvae at 28°C (±0.5) was done with SAIDs, NSAIDs and non-AIDs at concentrations ranging from 0.1 µM to 500 µM, with NPs at concentrations ranging from 1 µM to 500 µM, and with PEs at concentrations ranging from 1 ug/ml to 1 mg/ml. Controls containing only vehicle (1% DMSO) and untreated larvae were processed in parallel. Examination of each set of larvae was done under light microscopy (Carl Zeiss Stemi 2000C) each hour during a period of 8 h, and a final evaluation at 24 h post-incubation. At 8 h post-incubation, signs of toxicity, e.g. pericardial oedema, cardiovascular defects (arrhythmia or decreased circulation), balance defects (loss of normal posture), locomotor defects (decreased touch response), and ultimately death were scored for every drug, NP, and PE to further establish their maximum tolerated concentration (MTC). […] In this context, only non-toxic concentrations (below the MTC) were considered for further leukocyte migration analysis. All the toxicological assays were performed in duplicate using a different batch of zebrafish larvae for each set of experiments.
Toxicological assessment of all the samples analyzed in our study was done prior to the evaluation of their anti-inflammatory properties. The maximum tolerated concentrations (MTCs) were determined at 8 h post-treatment according to toxicological parameters including pericardial oedema, cardiovascular defects (arrhythmia or decreased circulation), balance defects (loss of normal posture), locomotor defects (decreased touch response), and death. […] Vehicle-treated (1% DMSO) and untreated larvae were processed in parallel to minimize experimental variability in this toxicological evaluation.

O=C(O)/C=C/c1ccc(O)c(O)c1 [Caffeic acid, caffeic acid]
Leukocyte migration (RLM) ([1]; 500 µM, tail cut + 10 µg/ml LPS, relative to 1% DMSO control): 0.14 ^** | response vs control in vivo at 1 µM ([1]; Danio rerio, Leukocyte, 8 h, 1 µM, tail cut + 10 µg/ml LPS, relative to 1% DMSO control): 80% | response vs control in vivo at 10 µM ([1]; Danio rerio, Leukocyte, 8 h, 10 µM, tail cut + 10 µg/ml LPS, relative to 1% DMSO control): 71% | response vs control in vivo at 30 µM ([1]; Danio rerio, Leukocyte, 8 h, 30 µM, tail cut + 10 µg/ml LPS, relative to 1% DMSO control): 59% | response vs control in vivo at 100 µM ([1]; Danio rerio, Leukocyte, 8 h, 100 µM, tail cut + 10 µg/ml LPS, relative to 1% DMSO control): 59% | response vs control in vivo at 300 µM ([1]; Danio rerio, Leukocyte, 8 h, 300 µM, tail cut + 10 µg/ml LPS, relative to 1% DMSO control): 34% | response vs control in vivo at 500 µM ([1]; Danio rerio, Leukocyte, 8 h, 500 µM, tail cut + 10 µg/ml LPS, relative to 1% DMSO control): 14% | Anti-inflammatory activity at MTC ([1]; at MTC, (1−RLM)x100): 86% | RLM (zebrafish-based assay) ([1]; at the MTC given in Table 2): 0.14 | IC50 [2]: 4.8 µM | Maximum tolerated concentration (MTC) [3]: 500 µM
